US20250255923A1, “METHODS FOR EXTRACTING MELATONIN AND COMPOSITIONS THEREOF” (priority 2023, published 2025)

How the values were obtained:
Format in all cases: in vivo
[1] = test system: mice; assay: Sleep induced by over-threshold dose of pentobarbital sodium in mice; conditions: pentobarbital sodium 40 mg/kg 60 min after last dose, twice daily for three days, Diazepam 20 mg/kg BW, Tomato Extract 3 mg/kg BW (melatonin content), Synthesized Melatonin 5 mg/kg BW; for Number of Mice that Fell Asleep: 10 mice, within 30 minutes
[2] = test system: mice; assay: Sleep induced by sub-threshold dose of pentobarbital sodium in mice; conditions: pentobarbital sodium 25 mg/kg 60 min after last dose, twice daily for three days, Diazepam 20 mg/kg BW, Tomato Extract 3 mg/kg BW (melatonin content), Synthesized Melatonin 5 mg/kg BW; for Number of Mice that Fell Asleep: 10 mice, within 30 minutes
[3] = test system: mice; assay: Threshold dose experiment of pentobarbital sodium (sleep rate within 30 minutes post-injection); conditions: for Sleep Rate (%) / Number of Mice that Fell Asleep: within 30 minutes; for Number of Mice that Fell Asleep: 10 mice
Protocol: Threshold Dose Experiment of Pentobarbital Sodium: A total of 40 mice were randomly divided into four groups, with 10 mice in each group. Each group received an intraperitoneal injection of pentobarbital sodium at the following doses: 25 mg/kg bodyweight (BW), 30 mg/kg BW, 35 mg/kg BW, and 40 mg/kg BW. The sleep rates of the mice were recorded within 30 minutes post-injection.
Based on the experimental results, it appears that the lower threshold dose of pentobarbital sodium is 25 mg/kg BW (“sub-threshold dose”). Based on the experimental results, it appears that the upper threshold dose of pentobarbital sodium is 40 mg/kg BW (“over-threshold dose”). The lower threshold was used for subsequent studies.

[4] = mice, intraperitoneal, sleep within 30 minutes

Compound	Sleep Latency [1] [min]	Sleep Rate (%) [1] [%]	Total Sleep Duration [1] [min]	Number of Mice that Fell Asleep [1]	Sleep Latency [2] [min]	Sleep Rate (%) [2] [%]	Total Sleep Duration [2] [min]	Number of Mice that Fell Asleep [2]	Sleep Rate (%) ([3]; 25 mg/kg BW intraperitoneal)	Number of Mice that Fell Asleep ([3]; 25 mg/kg BW intraperitoneal)	Sleep Rate (%) ([3]; 30 mg/kg BW intraperitoneal)	Number of Mice that Fell Asleep ([3]; 30 mg/kg BW intraperitoneal)	Sleep Rate (%) ([3]; 35 mg/kg BW intraperitoneal)	Number of Mice that Fell Asleep ([3]; 35 mg/kg BW intraperitoneal)	Sleep Rate (%) ([3]; 40 mg/kg BW intraperitoneal)	Number of Mice that Fell Asleep ([3]; 40 mg/kg BW intraperitoneal)	lower threshold dose (sub-threshold dose) [3, 4] [mg/kg BW]	upper threshold dose (over-threshold dose) [3, 4] [mg/kg BW]
CCCC(C)C1(CC)C(=O)NC(=O)NC1=O (stereo not shown) [Pentobarbital Sodium, pentobarbital sodium]	12.69	100	13.50	10	12.37	10	11.50	1	10	1	50	5	80	8	100	10	25	40
COc1ccc2[nH]cc(CCNC(C)=O)c2c1 [Chemically Synthesized Melatonin, N-acetyl-5-methoxytruptamine]	4.53	100	62.56	10	6.33	100	21.56	10	–	–	–	–	–	–	–	–	–	–
CN1C(=O)CN=C(c2ccccc2)c2cc(Cl)ccc21 [Diazepam]	5.13	100	58.23	10	7.89	100	19.23	10	–	–	–	–	–	–	–	–	–	–
